# Test results as given in ChEMBL document CHEMBL1122563, “Design, synthesis, and X-ray data of novel potential antipsychotic agents. Substituted 7-phenylquinolizidines: stereospecific, neuroleptic, and antinociceptive properties” (J Med Chem, 1984).
# Experiments:
# Mus musculus [1] = species: Mus musculus; experiment: animal or person; format: functional; conditions: po
# Description: Peroral dose at which 50% of the mouse start to lick their paws later than 10 s using hot plate assay.
# Mus musculus [2] = species: Mus musculus; experiment: animal or person; format: functional; conditions: in Rattus norvegicus, po, 1 h
# Description: Peroral dose inhibiting acetic acid induced writhing 1 hr after administration in 50% of the rats.
# Mus musculus [3] = species: Mus musculus; experiment: animal or person; format: functional; conditions: sc
# Description: Subcutaneous dose at which 50% of the mouse start to lick their paws later than 10 s using hot plate assay.
# Mus musculus [4] = species: Mus musculus; experiment: animal or person; format: functional; conditions: in Rattus norvegicus, po, 8 h
# Description: Peroral dose inhibiting acetic acid induced writhing 8 hr after administration in 50% of the rats.
# Mus musculus [5] = species: Mus musculus; experiment: animal or person; format: functional; conditions: in Rattus norvegicus, sc, 8 h
# Description: Subcutaneous dose inhibiting acetic acid induced writhing 8 hr after administration in 50% of the rats.
# Mus musculus [6] = species: Mus musculus; experiment: animal or person; format: functional; conditions: in Rattus norvegicus, po, 24 h
# Description: Peroral dose inhibiting acetic acid induced writhing 24 hr after administration in 50% of the rats.
# Mus musculus [7] = species: Mus musculus; experiment: animal or person; format: functional; conditions: in Rattus norvegicus, sc, 0.5 h
# Description: Subcutaneous dose inhibiting acetic acid induced writhing 0.5 hr after administration in 50% of the rats.
# Rattus norvegicus [8] = species: Rattus norvegicus; experiment: animal or person; conditions: ip
# Description: (§1) Intraperitoneal dose producing a block of avoidance response in 50% of the rats.
# [9] = Levels of homovanillic acid (HVA) in rat brain 2 hour after an intraperitoneal injection dose; format: ADME, tissue-based; conditions: in vivo, ip
# Rattus norvegicus [10] = species: Rattus norvegicus; experiment: dose producing 50% of the theoretically obtained maximum catalepsy in rats; format: functional
# Mus musculus [11] = experiment: Intraperitoneal dose inhibiting acetic acid induced writhing in 50% of mice; format: functional
# Rattus norvegicus [12] = species: Rattus norvegicus
# Description: as §1
# Mus musculus [13] = species: Mus musculus; experiment: Dose at which 50% of the mouse show not more than one extension movement.; format: functional
# [14] = Rattus norvegicus, read-out: ED50
# [15] = Mus musculus, ip, read-out: ED50
SMILES,ED50 (Rattus norvegicus [8]) [mg/kg],HVA level [9] [%],ED50 (Rattus norvegicus [10]; [14]) [mg/kg],further results
CCCC[C@]1(OC(C)=O)CCN2C[C@H](c3ccccc3)CC[C@H]2C1,–,–,–,ED50 (Mus musculus [1]): 551 mg/kg; ED50 (Mus musculus [2]): 10 mg/kg; ED50 (Mus musculus [3]): 100 mg/kg
CCCC[C@@]1(OC(C)=O)CCN2C[C@H](c3ccccc3)CC[C@H]2C1,–,–,–,ED50 (Mus musculus [4]): 4.9 mg/kg; ED50 (Mus musculus [5]): 3.8 mg/kg; ED50 (Mus musculus [6]): 69 mg/kg; ED50 (Mus musculus [7]): 0.14 mg/kg; ED50 (Mus musculus [3]): 1.1 mg/kg
CC[C@]1(O)CCN2C[C@@H](c3ccc(Cl)cc3Cl)CC[C@@H]2C1,> 30,284,–,–
CC(C)(C)[C@]1(O)CCN2C[C@@H](c3ccccc3Cl)CC[C@@H]2C1,10,449,20.2,–
C[C@]1(O)CCN2C[C@@H](c3ccc(Cl)cc3Cl)CC[C@@H]2C1,> 30,157,–,–
CC(C)(C)[C@]1(O)CCN2C[C@@H](c3ccccc3)CC[C@@H]2C1.Cl,> 30,308,–,–
CC(C)(C)[C@]1(O)CCN2C[C@@H](c3ccc(Cl)cc3)CC[C@@H]2C1.Cl,13.5,290,16,–
CCCC[C@@]1(OC(C)=O)CCN2C[C@@H](c3ccccc3)CC[C@@H]2C1.Cl,–,–,–,ED50 (Mus musculus [11]; [15]): > 100 mg/kg
CCCC[C@]1(O)CCN2C[C@@H](c3ccc(Cl)cc3Cl)CC[C@@H]2C1.Cl,42,150,> 10,–
CCC(C)[C@]1(O)CCN2C[C@@H](c3ccc(Cl)cc3Cl)CC[C@@H]2C1.Cl (some centres not stated),6.25,467,5.5,–
Cl.O[C@]1(c2ccccc2)CCN2C[C@@H](c3ccccc3Cl)CC[C@@H]2C1,> 30,99,–,–
CC(=O)O[C@@]1(C(C)(C)C)CCN2C[C@@H](c3ccccc3)CC[C@@H]2C1.Cl,–,–,–,ED50 (Mus musculus [11]; [15]): 2.6 mg/kg
CC(C)(C)[C@]1(O)CCN2C[C@@H](c3ccc(Cl)c(Cl)c3)CC[C@@H]2C1.Cl,> 30,190,30,–
CC(=O)O[C@@]1(c2ccccc2)CCN2C[C@@H](c3ccccc3Cl)CC[C@@H]2C1.Cl,–,–,–,ED50 (Mus musculus [11]; [15]): 2.8 mg/kg
CC(=O)O[C@@]1(C(C)(C)C)CCN2C[C@@H](c3ccc(Cl)cc3Cl)CC[C@@H]2C1.Cl,–,–,–,ED50 (Mus musculus [11]; [15]): 300 mg/kg
CC(C)(C)[C@]1(O)CCN2C[C@@H](c3cccc(Cl)c3)CC[C@@H]2C1.Cl,> 30,103,> 30,–

SMILES,ED50 (Rattus norvegicus [8]) [mg/kg],HVA level [9] [%],ED50 (Rattus norvegicus [10]; [14]) [mg/kg],further results
CC(C)[C@]1(O)CCN2C[C@@H](c3ccc(Cl)cc3Cl)CC[C@@H]2C1.Cl,17.5,280,9.2,–
CC(C)(C)[C@]1(O)CCN2C[C@@H](c3ccc(C(F)(F)F)cc3)CC[C@@H]2C1.Cl,18.5,369,> 30,–
CC(=O)O[C@@]1(C(C)(C)C)CCN2C[C@@H](c3ccc(Cl)cc3)CC[C@@H]2C1.Cl,–,–,–,ED50 (Mus musculus [11]; [15]): 4 mg/kg
Cl.O[C@@]1(c2ccccc2)CCN2C[C@@H](c3ccccc3Cl)CC[C@@H]2C1,7,340,> 10,–
CC(C)(C)[C@]1(O)CCN2C[C@@H](c3c(Cl)cccc3Cl)CC[C@@H]2C1.Cl,> 30,–,> 30,–
CC(=O)O[C@]1(C(C)(C)C)CCN2C[C@H](c3ccccc3Cl)CC[C@@H]2C1.Cl,–,–,–,ED50 (Mus musculus [11]; [15]): 28 mg/kg
CC(C)(C)[C@]1(O)CCN2C[C@@H](c3ccc(Cl)cc3Cl)CC[C@@H]2C1.Cl (stereo in doubt; 5e),–,557,–,ED50 (Rattus norvegicus [12]): 6.4 mg/kg; ED50 (Rattus norvegicus [10]): 12.2 mg/kg
CC(=O)O[C@@]1(C(C)(C)C)CCN2C[C@@H](c3ccccc3Cl)CC[C@@H]2C1.Cl (stereo in doubt; 23),–,–,–,ED50 (Mus musculus [11]; [15]): 36 mg/kg
CC(C)(C)[C@]1(O)CCN2C[C@@H](c3ccc(Cl)cc3Cl)CC[C@@H]2C1.Cl (stereo in doubt; (+)-5e),–,283,–,ED50 (Rattus norvegicus [12]): >30 mg/kg; ED50 (Rattus norvegicus [10]): 28.4 mg/kg
CC(C)(C)[C@@]1(O)CCN2C[C@H](c3ccccc3Cl)CC[C@@H]2C1.Cl (stereo in doubt; (+)-5g),–,–,–,ED50 (Mus musculus [11]): >30 mg/kg
CCCC[C@@]1(O)CCN2C[C@H](c3ccccc3)CC[C@@H]2C1 (stereo in doubt; (+)-19),–,–,–,ED50 (Mus musculus [11]; [15]): > 30 mg/kg
CC(C)(C)[C@]1(O)CCN2C[C@@H](c3ccc(Cl)cc3Cl)CC[C@@H]2C1.Cl (stereo in doubt; (-)-5e),–,350,–,ED50 (Rattus norvegicus [12]): 4.7 mg/kg; ED50 (Rattus norvegicus [10]): 4.4 mg/kg
CC(C)(C)[C@@]1(O)CCN2C[C@H](c3ccccc3Cl)CC[C@@H]2C1.Cl (stereo in doubt; (-)-5g),–,–,–,ED50 (Mus musculus [11]): >10 mg/kg
CC(=O)O[C@@]1(C(C)(C)C)CCN2C[C@@H](c3ccccc3Cl)CC[C@@H]2C1.Cl (stereo in doubt; (-)-23),–,–,–,ED50 (Mus musculus [13]): > 30 mg/kg
CN1CC[C@]23c4c5ccc(O)c4O[C@H]2[C@@H](O)C=C[C@H]3[C@H]1C5.Cl [MORPHINE HYDROCHLORIDE],–,–,–,ED50 (Mus musculus [4]): 86 mg/kg; ED50 (Mus musculus [1]): 36 mg/kg; ED50 (Mus musculus [5]): 135 mg/kg; ED50 (Mus musculus [6]): > 550 mg/kg; ED50 (Mus musculus [7]): 0.96 mg/kg; ED50 (Mus musculus [2]): 2.4 mg/kg; ED50 (Mus musculus [3]): 9.6 mg/kg
